From patent US20220340983A1, “SYSTEMS AND ASSAYS FOR IDENTIFYING PU.1 INHIBITORS” (Massachustts Institute of Technology, priority 2019, published 2022)

Experiments:
[1] = system: PU.1 dependent gene expression; experiment: RT-qPCR of mRNA levels in BV2 PU.1-Luciferase cells (validation round 3); assay type: cell-based, mouse; conditions: 2-day treatment
Procedure: The Asinex1 and ChemDiv6 libraries contain molecules with unknown biological properties, but with low toxicity, high stability, and a broad structural diversity used to generate structure-activity-relationships (SAR) of the PU.1 inhibitors. […] In order to obtain the SAR, three rounds of validation were performed. In round 1, false-positive, non-specific luciferase quencher molecules were excluded using the commercially available HEK293 CMV-Luciferase line that constitutively expresses luciferase under the CMV promoter. In round 2, weak (non-significant) hits were eliminated according to degree of PU.1 inhibition in the absence of cell death. In round 3, drugs were selected that reduce PU.1-dependent gene expression with RT-qPCR.

PU.1 = molecular target: T1, PU.1 (Mus musculus, UniProt P17433); experiment: Luciferase assay (luminescence) in BV2 PU.1-Luciferase reporter cells; assay type: cell-based; conditions: luminescence reduction in BV2 PU.1-Luciferase cells, concentration-response, Hill's equation
T1 construct: endogenous in cells; host or cells: BV2 PU.1-Luciferase (mouse microglial BV2 with a 5xLBB-luciferase reporter integrated at ROSA26)
From the text: PU.1 belongs to a group of transcription factors that all bind to the middle 5′-GGAA-3′ sequence. The flanking A/T rich sequence is crucial for conferring PU.1 selective binding. The flanking sequence requires unique structural properties of PU.1 and can therefore be targeted by drugs acting as allosteric inhibitors that prevent PU.1 from binding to the LBB. In order to achieve robust PU.1 binding, five tandem copies of the LBBs (5×LBB) were inserted into the luciferase promoter of the pGL4.23 plasmid. The region containing the five LBBs (5×LBB) was then subcloned into the pROSA26-1 plasmid (together with a PGKneo bpA plasmid for Neomycin/G418 resistance) that allows stable integration in chromosome 6 of the immortalized mouse microglial BV2 cell line (FIG. 2B). The stable cell line was created by selection with G418.
The BV2 PU.1-Luciferase cells (referred to as “cells” from here onward) were plated into a 384-well plate, using an automatic dispenser, 2000 cells per well in 30 μL of media composed of RPMI (Sigma-Aldrich), 10% FBS, 1% PenStrep (50 mg/mL) and 1% G418 (50 mg/mL) was plated. A robotic arm was used to transfer compounds in a 384-well format using a pin array into the plate containing the cells (here, 33 nL was transferred from a drug library containing 10 mM concentration of drugs for a final concentration of 10 μM per well). For reproducibility, each pin array with 384 compounds was added to 4 plates of cells. […] Subsequently, automatic of 30 μL of BrightGlo (Promega) was dispensed into 2 of the 4 plates, in order to lyse the cells and drive the luminescence reaction whereafter the luminescence intensity was measured by a plate reader (Perkin Elmer EnVision). The two other plates were fixed by automatically dispensing 30 μL of 10% formaldehyde with 2μL Hoechst per 1 mL formaldehyde which were left at room temperature for one hour, followed by plate reading (Acumen (TTPLabTech)). A compound transfer and treatment would be repeated if reproducibility between the luminescence plates and/or the fixed Hoechst plates was lacking. The drugs were selected and ranked according to the criteria described in FIG. 13. Luminescence values used were corrected for crosstalk. Hoechst values were total fluorescence area per well. Determination of a positive hit considered both the reduction of luminescence as well as a possible confounding reduction in cell viability. The formula used was y=(value−meanvalue)/stddev. […] Compounds were excluded if cell viability was reduced >2 standard deviations from the mean, using the same formula. The positive hits were then validated in multiple steps in order to identify true PU.1 inhibitors.
The degree of luminescence reduction of the hits was plotted with significant effective area under the curve in order to obtain an IC50.

Row | IC50 (PU.1) [µM] | SMILES | mRNA levels Apoe [1] | mRNA levels IL1β [1] | mRNA levels Lucif. [1] | mRNA levels Spi1 [1] | mRNA levels Trem2 [1] | mRNA levels Tyrobp [1]
1 | 2.37 | CCOC(=O)c1oc2ccc(S(=O)(=O)n3nc(-c4ccccc4OC)cc3N)cc2c1C [Compound 1H7] | 0.908 multiples of 1× | 1.017 multiples of 1× | 0.524 multiples of 1× | 1.022 multiples of 1× | 1.100 multiples of 1× | 1.011 multiples of 1×
2 | 2.28 | CC(=O)c1c(C)oc2ccc(N(C(=O)Oc3ccccc3)S(=O)(=O)c3ccc(C(C)(C)C)cc3)cc12 [Compound 1A2] | 0.858 multiples of 1× | 1.054 multiples of 1× | 0.324 multiples of 1× | 0.915 multiples of 1× | 1.073 multiples of 1× | 1.093 multiples of 1×
3 | 0.155 | Cc1ccc(-c2c(C)n3c4c(=O)n(C)c(=O)n(C)c4nc3n2CCO)cc1 [Compound 2H5] | 1.756 multiples of 1× | 0.185 multiples of 1× | 0.165 multiples of 1× | 1.316 multiples of 1× | 2.628 multiples of 1× | 2.422 multiples of 1×
4 | 0.136 | CCOC(=O)Cn1c(=O)n(C2CCCCC2)c2nc(-c3cccc(F)c3)nc(C(N)=O)c21 [Compound 2E4] | 0.841 multiples of 1× | 1.077 multiples of 1× | 0.404 multiples of 1× | 1.377 multiples of 1× | 0.806 multiples of 1× | 1.141 multiples of 1×
5 | 2.93 | CC(C)(C)OC(=O)N1CCC(c2c(C(=O)Nc3ccc4c(c3)OCCO4)cnn2-c2ccccc2)CC1 [Compound 2C12] | 0.731 multiples of 1× | 0.486 multiples of 1× | 0.597 multiples of 1× | 0.736 multiples of 1× | 0.752 multiples of 1× | 0.713 multiples of 1×
6 | 0.338 | COc1cc(NS(=O)(=O)c2ccc3c(c2)CC(C)N3C(=O)C2CCC2)cc(OC)c1OC (stereo not shown) [Compound 2C3] | 1.133 multiples of 1× | 1.043 multiples of 1× | 0.430 multiples of 1× | 0.946 multiples of 1× | 1.179 multiples of 1× | 1.127 multiples of 1×
7 | 1.33 | Cc1c(Cl)ccc2sc(N3CCN(C(=O)CCS(=O)(=O)c4ccc(F)cc4)CC3)nc12 [Compound 2F9] | 0.928 multiples of 1× | 0.821 multiples of 1× | 0.655 multiples of 1× | 1.020 multiples of 1× | 0.890 multiples of 1× | 0.904 multiples of 1×
8 | 0.003 | CCOC(=O)O[C@]1(C(=O)OCCl)CC[C@H]2[C@@H]3CCC4=CC(=O)C=C[C@]4(C)[C@H]3[C@@H](O)C[C@@]21C [Loteprednol, reference compound] | 1.579 multiples of 1× | 0.805 multiples of 1× | 0.265 multiples of 1× | 1.167 multiples of 1× | 0.979 multiples of 1× | 0.927 multiples of 1×
9 | 2.29 | Cc1nc(-c2ccc(S(=O)(=O)Nc3ccc(C)c(N(C)C)c3)cc2)co1 [Compound 2F3] | 1.011 multiples of 1× | 0.386 multiples of 1× | 0.496 multiples of 1× | 0.733 multiples of 1× | 0.790 multiples of 1× | 0.854 multiples of 1×
10 | 8.05 | Cc1ccc(C(=O)Nc2nnc(SCc3cc(=O)c4c(C)ccc(C)c4[nH]3)s2)cc1 [Compound 2E7] | 1.076 multiples of 1× | 0.887 multiples of 1× | 0.623 multiples of 1× | 0.926 multiples of 1× | 0.854 multiples of 1× | 0.927 multiples of 1×
11 | 2.93 | CCOc1ccc(S(=O)(=O)Nc2ccc3c(c2)c(C(C)=O)c(C)n3S(=O)(=O)c2ccc(OCC)cc2)cc1 [Compound 1A5] | 1.200 multiples of 1× | 0.707 multiples of 1× | 0.371 multiples of 1× | 0.982 multiples of 1× | 1.085 multiples of 1× | 1.117 multiples of 1×
12 | 0.734 | CCOc1ccc(-c2nc(CSCC(=O)NCc3ccc(Cl)cc3)c(C)o2)cc1 [Compound 2H3] | 1.111 multiples of 1× | 0.915 multiples of 1× | 0.722 multiples of 1× | 0.897 multiples of 1× | 0.986 multiples of 1× | 1.003 multiples of 1×
13 | – | C[C@]12CCC(=O)C=C1CC[C@H]1[C@@H]3CC[C@](O)(C(=O)CO)[C@@]3(C)C[C@H](O)[C@@]12F [Fludrocortisone, reference compound] | 1.493 multiples of 1× | 1.764 multiples of 1× | 1.171 multiples of 1× | 0.900 multiples of 1× | 0.895 multiples of 1× | 1.082 multiples of 1×
14 | – | C[C@H]1C[C@H]2[C@@H]3CCC4=CC(=O)C=C[C@]4(C)[C@@]3(F)[C@@H](O)C[C@]2(C)[C@@]1(O)C(=O)CO [Betamethasone, reference compound] | 1.615 multiples of 1× | 0.379 multiples of 1× | – | 1.235 multiples of 1× | 1.137 multiples of 1× | 1.079 multiples of 1×
15 | 2.29 | CCn1c(=O)c2cc(C(=O)Nc3cc(OC)c(OC)c(OC)c3)sc2c2ccccc21 [Compound 1G9] | 1.217 multiples of 1× | 0.582 multiples of 1× | 0.485 multiples of 1× | 0.989 multiples of 1× | 0.713 multiples of 1× | 1.053 multiples of 1×
16 | – | C[C@@H]1C[C@H]2[C@@H]3CCC4=CC(=O)C=C[C@]4(C)[C@@]3(F)[C@@H](O)C[C@]2(C)[C@@]1(O)C(=O)CO [Dexamethasone, reference compound] | 1.325 multiples of 1× | 1.041 multiples of 1× | 0.373 multiples of 1× | 0.955 multiples of 1× | 0.751 multiples of 1× | 1.010 multiples of 1×

Row | SMILES | IC50 (PU.1) [µM] | mRNA levels Apoe [1] | mRNA levels IL1β [1] | mRNA levels Lucif. [1] | mRNA levels Spi1 [1] | mRNA levels Trem2 [1] | mRNA levels Tyrobp [1]
17 | Cc1cccc(Cn2cccc(C(=O)Nc3nc4ccccc4s3)c2=O)c1 [Compound 2F11] | 0.303 | 1.005 multiples of 1× | 1.086 multiples of 1× | 0.640 multiples of 1× | 0.943 multiples of 1× | 1.012 multiples of 1× | 1.002 multiples of 1×
